In ChEMBL document CHEMBL1201862, “PubChem BioAssay data set” (2004):
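Dose response: 5 concentrations. Exposure: 48 h. Format: 96-well plates. Endpoint: linear interpolation; highest concentration if not reached. The concentration for 50% growth inhibition is given as GI50.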 Activity calls are given as the source filed them. No stated cut-off is given here; in the data, active = GI50 up to about 1.1 µM and inactive = higher.

Tests used:
Test in all cases: inhibition of tumour cell growth, NCI panel, 48 h
DMS-273 = tested on: DMS-273
DMS-114 = tested on: DMS-114
DLD-1 = tested on: DLD-1
M19-MEL = tested on: M19-MEL
LXFL 529 = tested on: LXFL 529
XF498 = tested on: XF498
HOP-18 = tested on: HOP-18
SNB-78 = tested on: SNB-78
RXF 631 = tested on: RXF 631

Measured: GI50

CCOC(=O)CNC(=O)c1nc[nH]c1/N=N/N(C)C
inactive: DMS-273 > 100 µM | DMS-114 > 100 µM | DLD-1 > 100 µM | M19-MEL > 100 µM | LXFL 529 > 100 µM

CC1=C/C(=C2/N=C(N(C)C)SS2)C(C)=N1.[O-][Cl+3]([O-])([O-])O
inactive: DMS-273 > 100 µM | DMS-114 > 100 µM | DLD-1 > 100 µM | XF498 > 100 µM | M19-MEL 10.6 µM | HOP-18 > 100 µM | LXFL 529 > 100 µM | SNB-78 > 100 µM

COc1nc2c(nc(N)n2C2OC(CO)C(O)C(O)C2O)c(=O)[nH]1 (stereo unspecified)
inactive: DLD-1 > 100 µM | XF498 > 100 µM | M19-MEL > 100 µM | HOP-18 > 100 µM | LXFL 529 > 100 µM | SNB-78 > 100 µM

CC(=O)NNc1nc(C)c(C(=O)/C=C/c2ccc(NC(C)=O)cc2)s1
inactive: DMS-273 > 100 µM | DLD-1 > 100 µM | M19-MEL > 100 µM | HOP-18 > 100 µM | RXF 631 > 100 µM | SNB-78 > 100 µM

CC1(C)OC2COC3(CNO)OC(C)(C)OC3C2O1 (stereo unspecified)
inactive: DMS-273 > 100 µM | DMS-114 > 100 µM | DLD-1 > 100 µM | M19-MEL > 100 µM | HOP-18 > 100 µM | SNB-78 > 100 µM

N=C(N)NS(=O)(=O)c1ccc(NC(=O)c2cccn3c(=O)c4ccccc4nc23)cc1
inactive: DMS-273 32.1 µM | DMS-114 40.6 µM | DLD-1 83 µM | XF498 22.5 µM | M19-MEL 31.4 µM | HOP-18 > 100 µM | LXFL 529 37.5 µM | RXF 631 41.4 µM | SNB-78 > 100 µM

COc1ccc(OC)c2c(C(=O)O)c(Cc3ccccc3)ccc12
inactive: DMS-273 > 100 µM | DMS-114 > 100 µM | DLD-1 > 100 µM | XF498 > 100 µM | M19-MEL > 100 µM | HOP-18 > 100 µM | LXFL 529 > 100 µM

O=S(=O)(SCc1ccccc1)C(c1ccccc1)c1ccccc1
inactive: DMS-273 27.4 µM | DMS-114 19.3 µM | DLD-1 13.2 µM | XF498 58.1 µM | M19-MEL 32.4 µM | LXFL 529 26.5 µM | SNB-78 30.5 µM

CCCCCCCCCCCCOC(=S)NC
inactive: DMS-273 19.5 µM | DMS-114 20.8 µM | DLD-1 17.1 µM | XF498 20 µM | HOP-18 19 µM | LXFL 529 17 µM | SNB-78 27.8 µM

CCN(CC)CCC(=O)/C=C/c1ccc(C)cc1
inactive: DMS-273 11.2 µM | DMS-114 11.3 µM | DLD-1 6.17 µM | XF498 12.4 µM | M19-MEL 12.8 µM | HOP-18 17.6 µM | LXFL 529 7.67 µM | RXF 631 16.4 µM | SNB-78 23.5 µM

C/C(CC(=O)NCCc1ccccc1)=N\NC(=O)C[n+]1ccccc1
inactive: DMS-273 > 100 µM | DMS-114 > 100 µM | DLD-1 > 100 µM | XF498 > 100 µM | M19-MEL > 100 µM | LXFL 529 > 100 µM | RXF 631 > 100 µM | SNB-78 > 100 µM

COC1C=C(Nc2cccc(Cl)c2)C(=O)C1 (stereo unspecified)
inactive: DMS-273 50.4 µM | DMS-114 34.3 µM | DLD-1 51.4 µM | XF498 26.9 µM | M19-MEL > 100 µM | HOP-18 19.1 µM | LXFL 529 50.8 µM | SNB-78 48.4 µM

CC(=O)NNc1nc(C)c(C(=O)NNC(=O)C(=O)Nc2nc3ccc([N+](=O)[O-])cc3s2)s1
inactive: DMS-273 62.4 µM | DMS-114 24.4 µM | DLD-1 46.1 µM | XF498 25 µM | M19-MEL 45.5 µM | LXFL 529 49.9 µM | RXF 631 41.6 µM | SNB-78 69.5 µM

COC(=O)C(CC(=O)c1ccccc1)c1ccccc1NC(C)=O (stereo unspecified)
inactive: DMS-114 > 100 µM | DLD-1 > 100 µM | XF498 > 100 µM | M19-MEL > 100 µM | HOP-18 > 100 µM | LXFL 529 > 100 µM | RXF 631 > 100 µM | SNB-78 > 100 µM

CCOC(=O)NC1C2CC(=O)C(O2)C1OCc1ccccc1 (stereo unspecified)
inactive: DMS-273 > 100 µM | DMS-114 > 100 µM | DLD-1 > 100 µM | XF498 > 100 µM | M19-MEL > 100 µM | HOP-18 > 100 µM | LXFL 529 > 100 µM | RXF 631 > 100 µM | SNB-78 > 100 µM

[O-][S+]1c2ccccc2NC(c2ccc3ccccc3c2)CC1c1ccccc1 (stereo unspecified)
inactive: DMS-273 29.5 µM | DLD-1 23.3 µM | XF498 19.1 µM | M19-MEL 20.9 µM | HOP-18 > 100 µM | LXFL 529 15.7 µM

COc1ccc(N2C(=O)C3c4[nH]c5ccccc5c4C4CCCCC4C3C2=O)cc1 (stereo unspecified)
inactive: DMS-273 6.75 µM | DMS-114 8.63 µM | DLD-1 49 µM | M19-MEL 28.8 µM | HOP-18 22.4 µM | LXFL 529 22.2 µM | SNB-78 2.29 µM

CC(=O)Nc1ccc(/C=c2\sc3nnc(CCC(=O)Nc4ccccc4Cl)n3c2=O)cc1
inactive: DMS-114 55.5 µM | DLD-1 32.4 µM | XF498 25.1 µM | M19-MEL 37.4 µM | HOP-18 52.8 µM | LXFL 529 30 µM | RXF 631 32.9 µM | SNB-78 47.3 µM

O=c1cc(-c2ccccc2)[nH]c2c(Cl)cccc12
inactive: DMS-273 7.11 µM | DMS-114 7.66 µM | DLD-1 20.5 µM | XF498 26.8 µM | M19-MEL 9.18 µM | LXFL 529 31.5 µM | RXF 631 51.9 µM

C=C1C(=O)OC2CC(C)C3C=CC(=O)C3CC12 (stereo unspecified)
inactive: DMS-273 3.54 µM | DMS-114 2.44 µM | XF498 1.63 µM | M19-MEL 2.72 µM | HOP-18 5.77 µM | LXFL 529 1.26 µM | RXF 631 3.88 µM | SNB-78 3.42 µM

C=CCOCCCC(=O)C(=[N+]=[N-])C(=O)OC
inactive: DLD-1 > 100 µM | XF498 > 100 µM | M19-MEL > 100 µM | HOP-18 > 100 µM | LXFL 529 > 100 µM | RXF 631 > 100 µM | SNB-78 > 100 µM

COc1ccc2nc(C(=O)c3ccccc3)c(C)cc2c1
inactive: DMS-273 3.08 µM | DMS-114 3.22 µM | DLD-1 4.84 µM | XF498 3.68 µM | M19-MEL 7.82 µM | HOP-18 > 26.9 µM | LXFL 529 9.25 µM | RXF 631 8.18 µM | SNB-78 13.2 µM

CN(C)c1ccc(/C=C2\N=C(c3ccc(N)cc3)OC2=O)cc1
inactive: DMS-273 > 100 µM | DMS-114 > 100 µM | DLD-1 > 100 µM | XF498 > 100 µM | M19-MEL > 100 µM | HOP-18 > 100 µM | LXFL 529 > 100 µM | RXF 631 > 100 µM | SNB-78 > 100 µM

CC1CC2(S(=O)(=O)c3ccccc3)ON1CC2S(=O)(=O)c1ccccc1 (stereo unspecified)
inactive: DMS-273 > 100 µM | DMS-114 > 100 µM | DLD-1 > 100 µM | XF498 > 100 µM | M19-MEL > 100 µM | LXFL 529 > 100 µM | RXF 631 > 100 µM

N#CC(C(=O)CCC(=O)Nc1ccc(Cl)cc1)c1ccccc1Cl (stereo unspecified)
inactive: DMS-273 > 100 µM | DMS-114 > 100 µM | DLD-1 74.1 µM | XF498 > 100 µM | M19-MEL > 100 µM | LXFL 529 13.4 µM | RXF 631 > 100 µM | SNB-78 > 100 µM

CCCC(=O)c1c(NOC2OCC(OC(C)=O)C(OC(C)=O)C2OC(C)=O)nc(OC)n(C)c1=O (stereo unspecified)
inactive: DMS-273 > 100 µM | DMS-114 > 100 µM | DLD-1 > 100 µM | XF498 > 100 µM | M19-MEL > 100 µM | HOP-18 > 100 µM | LXFL 529 > 100 µM | RXF 631 > 100 µM

Cc1cccc2c3ccc4c(c3n(C)c12)C(=O)C=CC4=O
inactive: DMS-273 76 µM | DMS-114 41.1 µM | DLD-1 > 100 µM | M19-MEL > 100 µM | LXFL 529 > 100 µM | RXF 631 > 100 µM | SNB-78 > 100 µM

O=C(O)CC(O)(c1ccccc1C(=O)O)c1cccc2ccccc12 (stereo unspecified)
inactive: DMS-273 > 100 µM | DMS-114 > 100 µM | DLD-1 > 100 µM | XF498 > 100 µM | M19-MEL > 100 µM | HOP-18 > 100 µM | LXFL 529 > 100 µM | RXF 631 > 100 µM | SNB-78 > 100 µM
